Data reported in ChEMBL document CHEMBL1133236, “Synthesis and antifungal activities of 5/6-arylamino-4,7-dioxobenzothiazoles” (Bioorg Med Chem Lett, 2000).
≈ marks a conversion by molar mass, not a printed value.

What was measured:
Candida tropicalis = experiment: Antifungal activity against Candida tropicalis ATCC 28775; type: functional
Aspergillus niger = experiment: Antifungal activity against Aspergillus niger KCTC 1231; type: functional
Candida albicans = experiment: Antifungal activity against Candida albicans ATCC 10231; type: functional
Pichia kudriavzevii = experiment: Antifungal activity against Candida krusei ATCC 749; type: functional
HepG2 = experiment: In vitro cytotoxicity against HepG2 cells (Hepatocarcinoma from ATCC) by MTT assay; type: functional, cell-based, Homo sapiens
[1] = Homo sapiens, HepG2, read-out: IC50

Compound | MIC (Candida tropicalis) [µg/mL] | MIC (Aspergillus niger) [µg/mL] | MIC (Candida albicans) [µg/mL] | MIC (Pichia kudriavzevii) [µg/mL] | IC50 (HepG2; [1]) [µg/mL] | IC50 (HepG2; hepg2) [µg/mL]
O=C1C=C(Nc2ccc(F)cc2)C(=O)c2scnc21 | 6.3 (≈ 23 µM) | 3.2 (≈ 11.7 µM) | 12.5 (≈ 45.6 µM) | 3.2 (≈ 11.7 µM) | 17.9 (≈ 65.3 µM) | 
Cc1nc2c(s1)C(=O)C=C(Nc1cccc(Br)c1)C2=O | 0.8 (≈ 2.29 µM) | 12.5 (≈ 35.8 µM) | 12.5 (≈ 35.8 µM) | 6.3 (≈ 18 µM) | 15 (≈ 43 µM) | 
COC1=CC(=O)c2sc(C)nc2C1=O | 25 (≈ 119 µM) | 12.5 (≈ 59.7 µM) | 25 (≈ 119 µM) | 50 (≈ 239 µM) |  | 
O=C1C=C(Nc2ccc(OC(F)(F)F)cc2)C(=O)c2scnc21 | 12.5 (≈ 36.7 µM) | 3.2 (≈ 9.4 µM) | 12.5 (≈ 36.7 µM) | 3.2 (≈ 9.4 µM) | > 100 | 
Cc1ccc(NC2=CC(=O)c3sc(C)nc3C2=O)cc1 | 1.6 (≈ 5.63 µM) | 12.5 (≈ 44 µM) | 6.3 (≈ 22.2 µM) | 1.6 (≈ 5.63 µM) | 1.2 (≈ 4.22 µM) | 
COC1=CC(=O)c2ncsc2C1=O | 25 (≈ 128 µM) | 25 (≈ 128 µM) | 50 (≈ 256 µM) | 12.5 (≈ 64 µM) |  | 
Cc1nc2c(s1)C(=O)C=C(Nc1ccccc1)C2=O | 1.6 (≈ 5.92 µM) | 12.5 (≈ 46.2 µM) | 6.3 (≈ 23.3 µM) | 0.4 (≈ 1.48 µM) | 1.5 (≈ 5.55 µM) | 
Cc1nc2c(s1)C(=O)C=C(Nc1ccc(Cl)cc1)C2=O | 25 (≈ 82 µM) | 6.3 (≈ 20.7 µM) | 12.5 (≈ 41 µM) | 25 (≈ 82 µM) | 3.4 (≈ 11.2 µM) | 
Cc1nc2c(s1)C(=O)C=C(Nc1ccc(F)cc1)C2=O | 6.3 (≈ 21.9 µM) | 3.2 (≈ 11.1 µM) | 3.2 (≈ 11.1 µM) | 3.2 (≈ 11.1 µM) | 1.6 (≈ 5.55 µM) | 
CCOc1ccc(NC2=CC(=O)c3sc(C)nc3C2=O)cc1 | 6.3 (≈ 20 µM) | 1.6 (≈ 5.09 µM) | 3.2 (≈ 10.2 µM) | 3.2 (≈ 10.2 µM) | 4.9 (≈ 15.6 µM) | 
Cc1nc2c(s1)C(=O)C=C(Nc1cccc(Cl)c1)C2=O | 6.3 (≈ 20.7 µM) | 12.5 (≈ 41 µM) | 12.5 (≈ 41 µM) | 6.3 (≈ 20.7 µM) | 5.7 (≈ 18.7 µM) | 
Cc1nc2c(s1)C(=O)C=C(Nc1ccc(C)c(C)c1)C2=O | 0.4 (≈ 1.34 µM) | 12.5 (≈ 41.9 µM) | 12.5 (≈ 41.9 µM) | 3.2 (≈ 10.7 µM) | 4.8 (≈ 16.1 µM) | 
O=C1C=C(Nc2ccc(Cl)cc2)C(=O)c2scnc21 | 12.5 (≈ 43 µM) | 12.5 (≈ 43 µM) | 12.5 (≈ 43 µM) | 25 (≈ 86 µM) | 16.4 (≈ 56.4 µM) | 
O=C1C=C(Nc2ccccc2)C(=O)c2scnc21 | 6.3 (≈ 24.6 µM) | 3.2 (≈ 12.5 µM) | 12.5 (≈ 48.8 µM) | 6.3 (≈ 24.6 µM) | 14.7 (≈ 57.4 µM) | 
CCOc1ccc(NC2=CC(=O)c3ncsc3C2=O)cc1 | 12.5 (≈ 41.6 µM) | 3.2 (≈ 10.7 µM) | 12.5 (≈ 41.6 µM) | 6.3 (≈ 21 µM) | 23.6 (≈ 78.6 µM) | 
O=C1C=C(Nc2cccc(F)c2)C(=O)c2scnc21 | 12.5 (≈ 45.6 µM) | 1.6 (≈ 5.83 µM) | 12.5 (≈ 45.6 µM) | 3.2 (≈ 11.7 µM) | > 100 | 
CCCCCCc1ccc(NC2=CC(=O)c3sc(C)nc3C2=O)cc1 | 6.3 (≈ 17.8 µM) | 12.5 (≈ 35.3 µM) | 12.5 (≈ 35.3 µM) | 12.5 (≈ 35.3 µM) | 22 (≈ 62.1 µM) | 
Cc1nc2c(s1)C(=O)C=C(Nc1ccc(OC(F)(F)F)cc1)C2=O | 0.8 (≈ 2.26 µM) | 6.3 (≈ 17.8 µM) | 12.5 (≈ 35.3 µM) | 25 (≈ 70.6 µM) | > 100 | 
Cc1nc2c(s1)C(=O)C=C(Nc1ccc(C(F)(F)F)cc1)C2=O | 12.5 (≈ 36.9 µM) | 6.3 (≈ 18.6 µM) | 12.5 (≈ 36.9 µM) | 3.2 (≈ 9.46 µM) | > 100 | 
Nc1nc(=O)[nH]cc1F [FLUCYTOSINE] | 50 (≈ 387 µM) | 1.6 (≈ 12.4 µM) | 3.2 (≈ 24.8 µM) | 3.2 (≈ 24.8 µM) |  | 
CISPLATIN |  |  |  |  |  | 0.33
